From ChEMBL document CHEMBL2311395, “One pot solvent free synthesis and in vitro antitubercular screening of 3-Aracylphthalides against Mycobacterium tuberculosis” (Bioorg Med Chem Lett, 2013)
In brackets after ≈: the same amount, converted by molar mass.

Test system: Mycobacterium tuberculosis
Test: Antitubercular activity against Mycobacterium tuberculosis H37Ra ATCC 25177 assessed as growth inhibition after 8 days by XTT reduction menadione assay
Type: functional, organism-based
Details: H37Ra ATCC 25177, 192 h

Row | Structure (SMILES) | IC50 [µg/mL] | IC90 [µg/mL]
1 | O=C(CC1OC(=O)c2ccccc21)c1ccco1 (centres undefined) | 0.81 (≈ 3.34 µM) | 
2 | O=C(CC1OC(=O)c2ccccc21)c1cccs1 (centres undefined) | 1.24 (≈ 4.8 µM) | 
3 | O=C(CC1OC(=O)c2ccccc21)c1ccc(Cl)cc1 (centres undefined) | 0.97 (≈ 3.38 µM) | 
4 | NNC(=O)c1ccncc1 [ISONIAZID] |  | 0.125 (≈ 0.911 µM)
